Literature values as cited in patent US10279004B2, “Methods and compositions for enhancing or maintaining fertility” (Quality IP Holdings, LLC, priority 2016, dated 2019).

Legend:
[1] = test system: hGH; settings: for effect on hGH: other amino acids, literature
[2] = subcutaneous injection of 0.06 IU in hGH deficient subjects

Molecule	effect on hGH [1]	further results
N=C(N)NCCC[C@H](N)C(=O)O [arginine]	–	elevation of serum hGH levels ([1]; 30 g in males): 8.6 fold; increase in hGH levels ([1]; intravenous infusion of 183 mg/kg body weight in females): > 20 fold
N[C@@H](Cc1c[nH]cn1)C(=O)O [histidine]	marked increases in hGH	–
NCCCC[C@H](N)C(=O)O [lysine]	marked increases in hGH	–
CSCC[C@H](N)C(=O)O [methionine]	marked increases in hGH	–
NCCC[C@H](N)C(=O)O [ornithine]	marked increases in hGH	–
N[C@@H](Cc1ccccc1)C(=O)O [phenylalanine]	marked increases in hGH	–
hGH: human growth hormone, available in injectable forms	–	mean level of hGH reached [2]: 0.4 ng/mL; probability of clinical pregnancy (administration during ovarian stimulation phase of IVF cycles): increase the probability of clinical pregnancy; body composition in hGH-deficient adults (within months of hGH treatment): gains in lean body mass, skin thickness, and muscle mass are observed
